Measurements reported in patent US20250197451A1, “USE OF BIOACTIVE POLYPEPTIDE SYNTHESIZED ON BASIS OF KDM2B SEQUENCE IN NEURAL DIFFERENTIATION AND REGENERATION AND REPAIR OF MESENCHYMAL STEM CELLS” (CAPITAL MEDICAL UNIVERSITY SCHOOL OF STOMATOLOGY, priority 2021, published 2025).
Values joined by “and” are separate entries in the source; they are usually repeats but may differ in a detail not shown here. Equal values may be shown once. Ends that are not written are not given here.

Legend:
[1] = tested on: stem cells from apical papilla (SCAPs); experiment: neural induction in vitro: neurosphere formation with βIII-TUBULIN / NESTIN immunofluorescence staining; assay type: cell-based, human
Excerpt: […]

KDM2B = experiment: real-time fluorescence reverse transcription quantitative PCR, KDM2B/GAPDH in SCAPs; assay type: cell-based, human
Experimental: The plasmid was constructed according to standard methods. The complementary shRNA sequence targeting KDM2B gene was cloned into the viral vector pLKO.1 plasmid, sequenced and identified to complete the construction of the KDM2B shRNA plasmid. After PCR primers were designed for the full-length sequence of the KDM2B gene, the full-length sequence of the KDM2B gene was obtained by amplification, and the HA Tag was added. The tagged full-length KDM2B gene was ligated with the pQCXIN retroviral expression vector, sequenced and identified to obtain the plasmid containing the HA tagged full-length KDM2B gene. The virus packaging was carried out, and the resulting virus was collected, and the virus titer was measured. The virus was aliquoted and stored in the refrigerator at −80° C. The virus at a titer of 10-7 was incubated with stem cells from apical papillae in the presence of polybrene for 48 hours for infection, and the antibiotic was used to screen the infected cells. The sequence of the complementary shRNA targeting the KDM2B gene was represented as KDM2Bsh, with a nucleic acid sequence of 5′-[…]-3′ (SEQ ID NO: 287).

EZH2 protein = EZH2 protein (Homo sapiens, UniProt Q15910); experiment: KDM2B polypeptide microarray immune-hybridization with biotin-labelled EZH2 protein; assay type: binding; details: for Intensity (%) (gray intensity of colored points on the KDM2B polypeptide microarray): biotin-labelled EZH2 1 μg/ml, highest optical density set to 100%, some points noise/spike; for binding site of KDM2B to EZH2 (positive / negative): polypeptide microarray
Sequence of EZH2 protein (Q15910 whole entry, species assumed): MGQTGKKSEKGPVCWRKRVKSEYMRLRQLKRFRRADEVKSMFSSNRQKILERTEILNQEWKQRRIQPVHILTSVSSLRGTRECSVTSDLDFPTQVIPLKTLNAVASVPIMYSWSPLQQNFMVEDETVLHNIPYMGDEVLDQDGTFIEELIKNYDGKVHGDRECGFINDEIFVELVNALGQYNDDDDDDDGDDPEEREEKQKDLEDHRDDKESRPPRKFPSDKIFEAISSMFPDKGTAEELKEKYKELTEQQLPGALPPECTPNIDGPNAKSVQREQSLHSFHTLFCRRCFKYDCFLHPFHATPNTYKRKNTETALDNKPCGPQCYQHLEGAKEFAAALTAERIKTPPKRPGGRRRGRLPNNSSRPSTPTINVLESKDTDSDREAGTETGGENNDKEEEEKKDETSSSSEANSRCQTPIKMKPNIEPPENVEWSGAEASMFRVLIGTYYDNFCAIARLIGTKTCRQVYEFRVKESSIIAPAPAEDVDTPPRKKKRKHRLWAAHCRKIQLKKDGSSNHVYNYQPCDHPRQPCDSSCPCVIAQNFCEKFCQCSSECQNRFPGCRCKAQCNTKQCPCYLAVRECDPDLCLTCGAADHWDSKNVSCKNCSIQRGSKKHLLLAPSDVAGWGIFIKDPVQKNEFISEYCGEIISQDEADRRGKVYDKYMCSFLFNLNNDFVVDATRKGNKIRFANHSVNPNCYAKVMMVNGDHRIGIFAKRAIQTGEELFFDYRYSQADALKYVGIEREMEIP
Excerpt: […]

[2] = tested on: rat model of spinal cord injury (complete transection site T10 spinal cord); experiment: rat model of spinal cord injury, local injection of peptide alone (BBB score, gross appearance); assay type: in vivo; details: SCI + peptide alone, 10 μg/ml in 30 μl weekly local injection, individual rats
Experimental: 10 μg/ml of peptide 46-47 in a total of 30 μl was weekly injected into 10-week-old rats at the complete transection site T10 spinal cord (5 individual rats per group).

[3] = tested on: rat model of spinal cord injury (completely transected T10 spinal cord); experiment: rat model of spinal cord injury, transplantation of stem cells from apical papilla (BBB score, gross appearance); assay type: in vivo; details: SCI + SCAPs pre-treated with 10 μg/ml peptide 24 hours, individual rats
Excerpt: […]

[4] = virally transfected SCAPs (overexpression or knockdown), Day 9, individual samples
[5] = SCAPs + 10 μg/ml peptide, Day 9 of induction, individual samples
[6] = SCAPs + 10 μg/ml peptide, Day 9 of induction, mean of 5 samples

In the case of “5′-ATTTTGACGGGGTGGATAATCTG-3′ (expressed or natural sequence) [KDM2Bsh, complementary shRNA targeting the KDM2B gene, cloned into viral vector pLKO.1, reference compound]”, the “Number of NESTIN-positive neurospheres” value [1, 4] is reported as 5 and 4 and 2 (2×) and 3, the “Number of βIII-TUBULI-positive neurospheres” value [1, 4] is reported as 4 (2×) and 2 and 6 and 3 and the “Number of βIII-TUBULI-positive neurospheres, Means” value ([1]; virally transfected SCAPs (overexpression or knockdown), Day 9, mean of 5 samples, Vector 9, Scramsh 9) is reported as 3.8. For the same substance, the “Number of NESTIN-positive neurospheres, Means” value ([1]; virally transfected SCAPs (overexpression or knockdown), Day 9, mean of 5 samples, Vector 11, Scramsh 8.2) was 3.2, the “Expression of KDM2B/GAPDH in KDM2B-knockdown SCAPs (fold)” value (KDM2B; individual samples) was 0.34 fold and 0.31 fold and 0.28 fold and the “Expression of KDM2B/GAPDH in KDM2B-knockdown SCAPs (fold), Means” value (KDM2B; mean of 3 samples, Scramsh 1.0003) was 0.3067 fold.

For “A V G T T T R D S L T E I N L (AVGTTTRDSLTEINL; synthesized KDM2B peptide) [compound 253]”, the “Intensity (%) (gray intensity of colored points on the KDM2B polypeptide microarray)” value (shortened to “Intensity (%)”) (EZH2 protein) was 70.41%.

For “C I M R Q C I A P V L P H T A (CIMRQCIAPVLPHTA; synthesized KDM2B peptide) [compound 130]”, the “Intensity (%)” value (EZH2 protein) was 30.8%.

For “ConPP: control polypeptide synthesized from the negative binding sites (peptide 83-84) of KDM2B, with cell-penetrating peptide and FITC label (EEEACDQQPQEEEEKDEEGE; also: cell-penetrating peptide and FITC label, sites not given here)”, the “BBB score of hind limb motor function” value ([2]; 1 w) was 6 (3×) and 5 (2×), the “BBB score of hind limb motor function” value ([2]; 2 w) was 7 (2×) and 6 (2×) and 8 and the “BBB score of hind limb motor function” value ([2]; 3 w) was 9 (3×) and 10 and 8. For the same substance, the “BBB score of hind limb motor function” value ([2]; 4 w) was 12 (2×) and 11 (3×), the “BBB score of hind limb motor function” value [2] was 4 (3×) and 5 (2×) and the “Number of NESTIN-positive neurosphers” value [1, 5] was 3 (2×) and 4 (2×) and 6. The “Number of βIII-TUBULIN-positive neurosphers” value [1, 5] was 8 (2×) and 6 (2×) and 7, the “Number of NESTIN-positive neurosphers, Means” value [1, 6] was 4 and the “Number of βIII-TUBULIN-positive neurosphers, Means” value [1, 6] was 7. For the same substance, the “BBB score of hind limb motor function” value ([3]; 0 w) was 5 and 4 (4×), the “BBB score of hind limb motor function” value ([3]; 1 w) was 5 (3×) and 6 (2×) and the “BBB score of hind limb motor function” value ([3]; 2 w) was 6 (2×) and 7 (3×). For the same substance, the “BBB score of hind limb motor function” value ([3]; 3 w) was 8 (3×) and 9 (2×) and the “BBB score of hind limb motor function” value ([3]; 4 w) was 10 (2×) and 11 and 12 and 13.

For “D Q Q P Q E E E E K D E E G E (DQQPQEEEEKDEEGE; synthesized KDM2B peptide) [peptide 84]”, the “binding site of KDM2B to EZH2 (positive / negative)” value (EZH2 protein) was “negative”.

With “E E E A C D Q Q P Q E E E E K (EEEACDQQPQEEEEK; synthesized KDM2B peptide) [peptide 83]” the “binding site of KDM2B to EZH2 (positive / negative)” value (EZH2 protein) was “negative”.

For “G K Q S D I F L G D R V E R C (GKQSDIFLGDRVERC; synthesized KDM2B peptide) [compound 57]”, the “Intensity (%)” value (EZH2 protein) was 39.95%.

For “I Y E I E D R T R V Q P K F R (IYEIEDRTRVQPKFR; synthesized KDM2B peptide) [compound 69]”, the “Intensity (%)” value (EZH2 protein) was 0.15%.

With “L A V D Y P K T P T G S P A T (LAVDYPKTPTGSPAT; synthesized KDM2B peptide) [compound 98]” the “Intensity (%)” value (EZH2 protein) was 0.77%.

With “Q P K F R Y P F Y Y E M C W Y (QPKFRYPFYYEMCWY; synthesized KDM2B peptide) [compound 71]” the “Intensity (%)” value (EZH2 protein) was 0.57%.

In the case of “T E I N L S D C N K V T D Q C (TEINLSDCNKVTDQC; synthesized KDM2B peptide) [compound 255]”, the “Intensity (%)” value (EZH2 protein) is reported as 100%.

In the case of “T R D S L T E I N L S D C N K (TRDSLTEINLSDCNK; synthesized KDM2B peptide) [compound 254]”, the “Intensity (%)” value (EZH2 protein) is reported as 100%.

With “V L E R Y V Y C V T Q R S H L (VLERYVYCVTQRSHL; synthesized KDM2B peptide) [compound 74]” the “Intensity (%)” value (EZH2 protein) was 0.25%.
